In data set [1] the target is Silver catfish (Synodontis eupterus) major hepatic glutathione transferase (seGST). Type of data set: biochemical. The conditions noted are these: pH 6.5, 1 mM CDNB and 1 mM GSH.
Data set [2] relates to Silver catfish (Synodontis eupterus) major hepatic glutathione transferase (seGST). The data set can be described thus: Product and dead-end inhibition studies of seGST. Type of data set: biochemical.
Data set [3] has the same test system. The data set can be described thus: seGST steady state kinetics, GSH-CDNB conjugation. Type of data set: biochemical. Particulars: for Km: 0.1-1.2 mM GSH and CDNB, one substrate varied, the other kept constant.
For data set [4] the test system is unchanged. The data set can be described thus: Viscosity dependence of seGST kcat/KM. Type of data set: biochemical. The conditions noted are these: viscosogen added, 25 °C.
Another data set deals with GST. The conditions noted are these: cited from earlier work.

Like-named read-outs stand apart in the source and are kept apart here.

Regarding `[Cl][Sn]([c]1ccccc1)([c]1ccccc1)[c]1ccccc1` [Triphenytin chloride, triphenyltin chloride], half-maximal inhibition in data set [1] (IC50) required 0.05 ± 0.005 µM.

For `[Cl-].[K+]` [KCl], the “inhibition pattern in double reciprocal plots” value in data set [2] (with respect to GSH and with respect to CDNB) was “non-competitive inhibition”. `CCCCCCSC[C@H](NC(=O)CC[C@H](N)C(=O)O)C(=O)NCC(=O)O` [s-hexylglutathione]: in data set [1], the IC50 (usually the concentration at which inhibition is half-maximal) is 17.6 ± 1.3 µM. For the compound `O=C1OC(c2ccc(O)c(S(=O)(=O)O)c2)(c2ccc(O)c(S(=O)(=O)O)c2)c2c(Br)c(Br)c(Br)c(Br)c21` [Bromosulphosptlein, bromosulfophthalein], inhibition in data set [1] was half-maximal at 47.4 ± 5.67 µM (IC50).

Regarding `Nc1c(S(=O)(=O)O)cc(Nc2ccc(Nc3nc(Cl)nc(Nc4ccccc4S(=O)(=O)O)n3)c(S(=O)(=O)O)c2)c2c1C(=O)c1ccccc1C2=O` [Cibracron Blue], the IC50 in data set [1] was 0.01 ± 0.001 µM.

In the case of `O=[N+]([O-])c1ccc(Cl)c([N+](=O)[O-])c1` [CDNB, 1-chloro 2,4-dintrobenzene], the Km – broadly, the substrate concentration at which the rate is half of its maximum – in data set [3] (25 °C) was found to be 690 ± 170 µM. In addition, the “KIB (E.CDNB + GSH ⇌ E.CDNB.GSH)” value in data set [3] (from secondary plots, GSH-CDNB) amounted to 0.48 ± 0.02. For “1-methyl glutathione [1−methylglutathione]”, the Ki is 0.16 µM in data set [2] (read-out: Kis (CDNB varied), CDNB varied) and 0.09 µM in data set [2] (read-out: Kis (GSH varied), CDNB fixed at 1.0 mM, GSH 0.1-1.0 mM). Moreover, the IC50 in data set [1] was 16.6 ± 1.58 µM.

As for `OCC(O)CO` [glycerol, Glycerol], the “catalytic efficiency indicated by the exponential value” in data set [4] was found to be 23%. Moreover, the “exponential value of (kcat/KM)^0/(kcat/KM) versus relative viscosity” value in data set [4] (0.1 M potassium phosphate buffer pH 6.5) is given as 0.227. With `C=C(CC)C(=O)c1ccc(OCC(=O)O)c(Cl)c1Cl` [Ethacrynic acid], in data set [1], half-maximal inhibition (IC50) was put at 21.3 ± 3.22 µM. The same measure, in the same setting: next, `C=CC1=C(C)c2cc3[n-]c(cc4[n-]c(cc5nc(cc1n2)C(C)=C5C=C)c(C)c4CCC(=O)O)c(CCC(=O)O)c3C.[Fe+2]` [Hematin]: 5 ± 0.1 µM. On to `N[C@@H](CCC(=O)N[C@@H](CS)C(=O)NCC(=O)O)C(=O)O` [GSH, Reduced glutathione], for which, in data set [3] (25 °C), the Km amounted to 530 ± 50 µM. In data set [3] (25 °C, GSH-CDNB conjugation), the “kcat[GSH]” value came out at 44.62 ± 1.124 s⁻¹. In addition, in data set [3] (from secondary plots, GSH-CDNB), the “KA (E.GSH + CDNB ⇌ E.GSH.CDNB)” value is 0.64 ± 0.04 and the “KIA (E.GSH)” value worked out at 0.14 ± 0.01. The “pKa of GSH” value in the data set with GST (before lowering by GST) is given as 9.0. Further, the “pKa of the bound GSH” value in the data set on GST (bound to GST) is “about 6.5”.

The values above are taken from publication PMC5615938 (Toxicology Reports, 2016).
